Source: patent US20250339401A1, “METHODS AND MATERIALS FOR TREATMENT OF NEISSERIA GONORRHOEAE INFECTION” (Purdue Research Foundation, priority 2021, published 2025)
≈ marks a conversion by molar mass, not a printed value.

Tests used:
Assay type in all cases: cell-based
[1] = test system: Neisseria gonorrhoeae 178; test: MIC broth microdilution, N. gonorrhoeae 178
Protocol: (§1) The minimum inhibitory concentrations (MICs) of the tested compounds and control drugs; Azithromycin, Cefixime and Tetracycline (antibiotics) were determined using the broth microdilution method as described in previous reports with minor modifications against clinically-relevant Neisseria gonorrhea strains. Strains were grown on Brucella broth supplemented with yeast extract, neopeptone, hematin, pyridoxal and NAD at 37° C. for 24 hours in presence of 5% CO2. […] Compounds and control drugs were added in the first row of the 96-well plates and serially diluted with media containing bacteria. Plates were then, incubated aerobically at 37° C. in the presence of 5% CO2 for 24 hours.

[2] = test system: Neisseria gonorrhoeae 188; test: MIC broth microdilution, N. gonorrhoeae 188
Protocol: as §1

[3] = test system: Neisseria gonorrhoeae isolate 191; test: MIC broth microdilution, initial screening against N. gonorrhoeae isolate 191; settings: 24 hours, 37° C., 5% CO2
Protocol: as §1

[4] = test system: Neisseria gonorrhoeae 165; test: MIC broth microdilution, N. gonorrhoeae 165
Protocol: as §1

[5] = test system: Neisseria gonorrhoeae 169; test: MIC broth microdilution, N. gonorrhoeae 169
Protocol: as §1

[6] = test system: Neisseria gonorrhoeae 167; test: MIC broth microdilution, N. gonorrhoeae 167
Protocol: as §1

[7] = test system: Neisseria gonorrhoeae 166; test: MIC broth microdilution, N. gonorrhoeae 166
Protocol: as §1

[8] = test system: Neisseria gonorrhoeae 171; test: MIC broth microdilution, N. gonorrhoeae 171
Protocol: as §1

[9] = test system: Neisseria gonorrhoeae 202; test: MIC broth microdilution, N. gonorrhoeae 202
Protocol: as §1

[10] = test system: Neisseria gonorrhoeae 172; test: MIC broth microdilution, N. gonorrhoeae 172
Protocol: as §1

[11] = test system: Neisseria gonorrhoeae 175; test: MIC broth microdilution, N. gonorrhoeae 175
Protocol: as §1

[12] = test system: Neisseria gonorrhoeae 214; test: MIC broth microdilution, N. gonorrhoeae 214
Protocol: as §1

[13] = test system: Neisseria gonorrhoeae 194; test: MIC broth microdilution, N. gonorrhoeae 194
Protocol: as §1

[14] = test system: Neisseria gonorrhoeae 170; test: MIC broth microdilution, N. gonorrhoeae 170
Protocol: as §1

Compound | MIC [1] [µg/mL] | MIC [2] [µg/mL] | MIC (Minimum inhibitory concentration) [3] | MIC [4] [µg/mL] | MIC [5] [µg/mL] | MIC [6] [µg/mL] | MIC [7] [µg/mL] | MIC [8] [µg/mL] | MIC [9] [µg/mL] | MIC [10] [µg/mL] | MIC [11] [µg/mL] | MIC [12] [µg/mL] | MIC [13] [µg/mL] | MIC [14] [µg/mL]
CC[C@H]1OC(=O)[C@H](C)[C@@H](O[C@H]2C[C@@](C)(OC)[C@@H](O)[C@H](C)O2)[C@H](C)[C@@H](O[C@@H]2O[C@H](C)C[C@H](N(C)C)[C@H]2O)[C@](C)(O)C[C@@H](C)CN(C)[C@H](C)[C@@H](O)[C@]1(C)O [Azithromycin] | 1 (≈ 1.34 µM) | 2 (≈ 2.67 µM) | >128 | 1 (≈ 1.34 µM) | 1 (≈ 1.34 µM) | 16 (≈ 21.4 µM) | 2 (≈ 2.67 µM) | 0.25 (≈ 0.334 µM) | 32 (≈ 42.7 µM) | > 128 | 16 (≈ 21.4 µM) | 0.5 (≈ 0.668 µM) | 1 (≈ 1.34 µM) | 1 (≈ 1.34 µM)
C=CC1=C(C(=O)O)N2C(=O)[C@@H](NC(=O)/C(=N\OCC(=O)O)c3csc(N)n3)[C@H]2SC1 [Cefixime] | 0.25 (≈ 0.551 µM) | 0.25 (≈ 0.551 µM) | 0.06 | 0.25 (≈ 0.551 µM) | 0.25 (≈ 0.551 µM) | 0.06 (≈ 0.132 µM) | 0.5 (≈ 1.1 µM) | 0.25 (≈ 0.551 µM) | 0.03 (≈ 0.0662 µM) | 0.06 (≈ 0.132 µM) | 0.03 (≈ 0.0662 µM) | 0.25 (≈ 0.551 µM) | 1 (≈ 2.21 µM) | 0.25 (≈ 0.551 µM)
CN(C)[C@@H]1C(O)=C(C(N)=O)C(=O)[C@@]2(O)C(O)=C3C(=O)c4c(O)cccc4[C@@](C)(O)[C@H]3C[C@@H]12 [Tetracycline] | 16 (≈ 36 µM) | 2 (≈ 4.5 µM) | 1 | 8 (≈ 18 µM) | 4 (≈ 9 µM) | 1 (≈ 2.25 µM) | 2 (≈ 4.5 µM) | 2 (≈ 4.5 µM) | 1 (≈ 2.25 µM) | 1 (≈ 2.25 µM) | 1 (≈ 2.25 µM) | 4 (≈ 9 µM) | 1 (≈ 2.25 µM) | 4 (≈ 9 µM)
